This passage reports IC50 results from patent US20040006236A1, “Diaminopropionic acid derivatives” (priority 1999, published 2004).

T1 sequence (P05107 23-769, other chains not shown): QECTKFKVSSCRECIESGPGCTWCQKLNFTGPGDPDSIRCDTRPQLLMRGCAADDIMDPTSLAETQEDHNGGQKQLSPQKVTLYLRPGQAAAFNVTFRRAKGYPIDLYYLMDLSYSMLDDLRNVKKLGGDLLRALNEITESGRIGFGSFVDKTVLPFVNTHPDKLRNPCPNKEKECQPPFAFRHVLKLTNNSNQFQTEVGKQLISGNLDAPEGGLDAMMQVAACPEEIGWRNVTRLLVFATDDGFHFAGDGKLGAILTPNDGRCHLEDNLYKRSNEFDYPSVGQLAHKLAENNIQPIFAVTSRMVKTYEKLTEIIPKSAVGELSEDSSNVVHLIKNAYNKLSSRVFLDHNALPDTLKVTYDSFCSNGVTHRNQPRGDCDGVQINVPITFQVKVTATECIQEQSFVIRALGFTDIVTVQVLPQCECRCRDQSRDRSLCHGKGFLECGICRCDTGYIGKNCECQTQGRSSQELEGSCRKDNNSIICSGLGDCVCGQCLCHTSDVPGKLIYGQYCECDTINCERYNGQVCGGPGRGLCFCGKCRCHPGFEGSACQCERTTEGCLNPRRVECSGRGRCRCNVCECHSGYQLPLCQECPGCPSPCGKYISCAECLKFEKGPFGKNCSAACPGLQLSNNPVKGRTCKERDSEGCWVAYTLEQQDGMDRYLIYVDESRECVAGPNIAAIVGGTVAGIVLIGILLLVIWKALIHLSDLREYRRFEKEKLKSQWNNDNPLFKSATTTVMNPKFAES

This test addresses T1, ICAM-1 binding to immobilized Mac-1 (Homo sapiens, UniProt P05107+P11215).
T1 construct: made in house; host or cells: transfected 293 cells (Mac-1)
Put plainly: Mac-1/ICAM-1 screening assay (solid-phase ELISA). To be noted: read-out: Mac-1/ICAM-1 Protein-Protein Assay IC50. In a few lines: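 Competitive solid-phase ELISA: membrane Mac-1 from transfected 293 cells coated at 3 μg/mL in 20 mM Hepes pH 7.2/0.14 M NaCl/1 mM MnCl2; compounds (0.12 nM-20 μM, 1:4 series) plus 5dICAM-Ig (40 μg/mL, added) 2 h at 37° C. Bound ICAM-Ig detected with HRP anti-human IgG Fc, TMB, A450; IC50 reported.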
On the technique in general: In an ELISA, binding on a coated surface is turned into a signal by an enzyme label.
Regarding `O=C1CC[C@@H](C(=O)NC[C@H](NC(=O)c2ccc(C(=O)NCc3cccc(O)c3)cc2Cl)C(=O)O)O1` [Example 96], the IC50 was 56 nM.

`O=C(NCc1cccc(O)c1)c1ccc(C(=O)N[C@@H](CNC(=O)C2CC2)C(=O)O)c(Cl)c1` [Example 97]: the IC50 turned out to be 121 nM.

As for `O=C(NCc1cccc(O)c1)c1ccc(C(=O)N[C@@H](CNC(=O)C2(c3ccccc3)CC2)C(=O)O)c(Cl)c1` [Example 99], the IC50 amounted to 50 nM.

Regarding `O=C(NCc1cccc(O)c1)c1ccc(C(=O)N[C@@H](CNC(=O)C2CCC2)C(=O)O)c(Cl)c1` [Example 100], the IC50 came out at 32 nM.

With `O=C(NCc1cccc(O)c1)c1ccc(C(=O)N[C@@H](CNC(=O)C2CCCC2)C(=O)O)c(Cl)c1` [Example 101], the IC50 was 29 nM.

For the compound `COCCC1(C(=O)NC[C@H](NC(=O)c2ccc(C(=O)NCc3cccc(O)c3)cc2Cl)C(=O)O)CCCC1` [Example 102], the IC50 came out at 50 nM.

As for `O=C(NCc1cccc(O)c1)c1ccc(C(=O)N[C@@H](CNC(=O)C2(c3ccccc3)CCCC2)C(=O)O)c(Cl)c1` [Example 103], the IC50 stood at 21 nM.

In the case of `O=C(NCc1cccc(O)c1)c1ccc(C(=O)N[C@@H](CNC(=O)C2CCCCC2)C(=O)O)c(Cl)c1` [Example 104], the IC50 is 25 nM.

Take `O=C(NCc1cccc(O)c1)c1ccc(C(=O)N[C@@H](CNC(=O)[C@H](CC2CCCCC2)n2cccc2)C(=O)O)c(Cl)c1` [Example 110]: the IC50 worked out at 272 nM.

Regarding `Cc1noc(C)c1CCC(=O)NC[C@H](NC(=O)c1ccc(C(=O)NCc2cccc(O)c2)cc1Cl)C(=O)O` [Example 111], the IC50 was 44 nM.

Consider `O=C(CCN1CCCCC1)NC[C@H](NC(=O)c1ccc(C(=O)NCc2cccc(O)c2)cc1Cl)C(=O)O` [Example 112], for which the IC50 was determined as 18 nM.

Turning to `C/C=C/C(=O)NC[C@H](NC(=O)c1ccc(C(=O)NCc2cccc(O)c2)cc1Cl)C(=O)O` [Example 113], the IC50 is 30 nM.

In the case of `COc1ccc(/C=C/C(=O)NC[C@H](NC(=O)c2ccc(C(=O)NCc3cccc(O)c3)cc2Cl)C(=O)O)cc1` [Example 114], the IC50 amounted to 48 nM.

For the compound `O=C(/C=C/c1cccnc1)NC[C@H](NC(=O)c1ccc(C(=O)NCc2cccc(O)c2)cc1Cl)C(=O)O` [Example 115], the IC50 was determined as 43 nM.

On to `O=C(/C=C/c1cccs1)NC[C@H](NC(=O)c1ccc(C(=O)NCc2cccc(O)c2)cc1Cl)C(=O)O` [Example 116], for which the IC50 was 18 nM.

Take `CC(=O)Oc1ccccc1C(=O)NC[C@H](NC(=O)c1ccc(C(=O)NCc2cccc(O)c2)cc1Cl)C(=O)O` [Example 117]: the IC50 was found to be 33 nM.

Regarding `O=C(NCc1cccc(O)c1)c1ccc(C(=O)N[C@@H](CNC(=O)c2ccccc2Br)C(=O)O)c(Cl)c1` [Example 120], the IC50 amounted to 114 nM.

`O=C(NCc1cccc(O)c1)c1ccc(C(=O)N[C@@H](CNC(=O)c2cccc(Br)c2)C(=O)O)c(Cl)c1` [Example 121]: the IC50 is 9 nM.

`O=C(NCc1cccc(O)c1)c1ccc(C(=O)N[C@@H](CNC(=O)c2ccccc2Cl)C(=O)O)c(Cl)c1` [Example 122]: the IC50 worked out at 32 nM.

For the compound `O=C(NCc1cccc(O)c1)c1ccc(C(=O)N[C@@H](CNC(=O)c2ccc(Cl)cc2)C(=O)O)c(Cl)c1` [Example 124], the IC50 worked out at 35 nM.

In the case of `N#Cc1cccc(C(=O)NC[C@H](NC(=O)c2ccc(C(=O)NCc3cccc(O)c3)cc2Cl)C(=O)O)c1` [Example 126], the IC50 is 11 nM.

On to `CN(C)c1cccc(C(=O)NC[C@H](NC(=O)c2ccc(C(=O)NCc3cccc(O)c3)cc2Cl)C(=O)O)c1` [Example 127], for which the IC50 was determined as 23 nM.

Regarding `CN(C)c1ccc(C(=O)NC[C@H](NC(=O)c2ccc(C(=O)NCc3cccc(O)c3)cc2Cl)C(=O)O)cc1` [Example 128], the IC50 was determined as 124 nM.

Regarding `CCOc1ccc(C(=O)NC[C@H](NC(=O)c2ccc(C(=O)NCc3cccc(O)c3)cc2Cl)C(=O)O)cc1` [Example 130], the IC50 turned out to be 53 nM.

As for `O=C(NCc1cccc(O)c1)c1ccc(C(=O)N[C@@H](CNC(=O)c2cccc(I)c2)C(=O)O)c(Cl)c1` [Example 133], the IC50 was determined as 10 nM.

As for `COc1ccccc1C(=O)NC[C@H](NC(=O)c1ccc(C(=O)NCc2cccc(O)c2)cc1Cl)C(=O)O` [Example 134], the IC50 came to 26 nM.

Consider `COc1ccc(C(=O)NC[C@H](NC(=O)c2ccc(C(=O)NCc3cccc(O)c3)cc2Cl)C(=O)O)cc1` [Example 135], for which the IC50 is 61 nM.

As for `COC(=O)c1cccc(C(=O)NC[C@H](NC(=O)c2ccc(C(=O)NCc3cccc(O)c3)cc2Cl)C(=O)O)c1` [Example 136], the IC50 was 16 nM.

Consider `Cc1ccccc1C(=O)NC[C@H](NC(=O)c1ccc(C(=O)NCc2cccc(O)c2)cc1Cl)C(=O)O` [Example 137], for which the IC50 came to 22 nM.

In the case of `Cc1ccc(C(=O)NC[C@H](NC(=O)c2ccc(C(=O)NCc3cccc(O)c3)cc2Cl)C(=O)O)cc1` [Example 139], the IC50 was found to be 47 nM.

Take `O=C(NCc1cccc(O)c1)c1ccc(C(=O)N[C@@H](CNC(=O)c2ccccc2[N+](=O)[O-])C(=O)O)c(Cl)c1` [Example 140]: the IC50 was 47 nM.

`O=C(NCc1cccc(O)c1)c1ccc(C(=O)N[C@@H](CNC(=O)c2cccc([N+](=O)[O-])c2)C(=O)O)c(Cl)c1` [Example 141]: the IC50 stood at 9.6 nM.

As for `O=C(NCc1cccc(O)c1)c1ccc(C(=O)N[C@@H](CNC(=O)c2ccc([N+](=O)[O-])cc2)C(=O)O)c(Cl)c1` [Example 142], the IC50 is 13 nM.

In the case of `CCCCCOc1ccc(C(=O)NC[C@H](NC(=O)c2ccc(C(=O)NCc3cccc(O)c3)cc2Cl)C(=O)O)cc1` [Example 143], the IC50 was 62 nM.

As for `O=C(NCc1cccc(O)c1)c1ccc(C(=O)N[C@@H](CNC(=O)c2ccccc2Oc2ccccc2)C(=O)O)c(Cl)c1` [Example 144], the IC50 turned out to be 53 nM.

On to `O=C(NCc1cccc(O)c1)c1ccc(C(=O)N[C@@H](CNC(=O)c2cc(F)c(F)cc2F)C(=O)O)c(Cl)c1` [Example 145], for which the IC50 worked out at 24 nM.

On to `O=C(NCc1cccc(O)c1)c1ccc(C(=O)N[C@@H](CNC(=O)c2cccc(C(F)(F)F)c2)C(=O)O)c(Cl)c1` [Example 146], for which the IC50 came to 27 nM.

Turning to `COc1cc(C(=O)NC[C@H](NC(=O)c2ccc(C(=O)NCc3cccc(O)c3)cc2Cl)C(=O)O)cc(OC)c1OC` [Example 147], the IC50 was 119 nM.

Consider `O=C(NCc1cccc(O)c1)c1ccc(C(=O)N[C@@H](CNC(=O)c2ccco2)C(=O)O)c(Cl)c1` [Example 148], for which the IC50 was 18 nM.

On to `O=C(NCc1cccc(O)c1)c1ccc(C(=O)N[C@@H](CNC(=O)c2ccc([N+](=O)[O-])o2)C(=O)O)c(Cl)c1` [Example 149], for which the IC50 was 35 nM.

For `O=C(NCc1cccc(O)c1)c1ccc(C(=O)N[C@@H](CNC(=O)c2ccc(Br)o2)C(=O)O)c(Cl)c1` [Example 150], the IC50 came to 21 nM.

As to `O=C(NCc1cccc(O)c1)c1ccc(C(=O)N[C@@H](CNC(=O)c2ccc[nH]2)C(=O)O)c(Cl)c1` [Example 151], the IC50 came to 33 nM.

On to `Cc1noc(C)c1C(=O)NC[C@H](NC(=O)c1ccc(C(=O)NCc2cccc(O)c2)cc1Cl)C(=O)O` [Example 153], for which the IC50 was 203 nM.

Turning to `O=C(NCc1cccc(O)c1)c1ccc(C(=O)N[C@@H](CNC(=O)c2sccc2Br)C(=O)O)c(Cl)c1` [Example 154], the IC50 is 11 nM.

On to `O=C(NCc1cccc(O)c1)c1ccc(C(=O)N[C@@H](CNC(=O)c2sccc2Cl)C(=O)O)c(Cl)c1` [Example 156], for which the IC50 amounted to 12 nM.

In the case of `O=C(NCc1cccc(O)c1)c1ccc(C(=O)N[C@@H](CNC(=O)c2ccc(Cl)s2)C(=O)O)c(Cl)c1` [Example 157], the IC50 is 7.7 nM.

Turning to `O=C(NCc1cccc(O)c1)c1ccc(C(=O)N[C@@H](CNC(=O)c2cc(Br)c(Br)s2)C(=O)O)c(Cl)c1` [Example 158], the IC50 amounted to 20 nM.

On to `Cc1ccsc1C(=O)NC[C@H](NC(=O)c1ccc(C(=O)NCc2cccc(O)c2)cc1Cl)C(=O)O` [Example 159], for which the IC50 was 13 nM.

On to `Cc1cccc(C(=O)NC[C@H](NC(=O)c2ccc(C(=O)NCc3cccc(O)c3)cc2Cl)C(=O)O)n1` [Example 163], for which the IC50 came to 40 nM.

With `O=C(NCc1cccc(O)c1)c1ccc(C(=O)N[C@@H](CNC(=O)c2cccnc2)C(=O)O)c(Cl)c1` [Example 165], the IC50 turned out to be 39 nM.

In the case of `O=C(NCc1cccc(O)c1)c1ccc(C(=O)N[C@@H](CNS(=O)(=O)c2ccccc2)C(=O)O)c(Cl)c1` [Example 360, 3-(phenylsulfonylamino)-N-[2-chloro-4-[[[(3-hydroxyphenyl)methyl]amino]carbonyl]benzoyl]-L-alanine], the IC50 is 600 nM.

Consider `CC(=O)Nc1nc(C)c(S(=O)(=O)NC[C@H](NC(=O)c2ccc(C(=O)N[C@H](C)c3cccc4ccccc34)cc2Cl)C(=O)O)s1` [Example 362], for which the IC50 came to 1530 nM.

For the compound `O=C(NCc1ccc(C(=O)N[C@@H](CNC(=O)c2ccccc2)C(=O)O)c(Cl)c1)c1cccc(O)c1` [Example 364, N-[2-chloro-4-[[(3-hydroxyphenyl)carbonyl]aminomethyl]benzoyl]-3-benzoylamino-L-alanine], the IC50 was 167 nM.

In the case of `O=C(NC[C@H](NC(=O)c1ccc(CNC(=O)c2ccccc2O)cc1Cl)C(=O)O)c1ccccc1` [Example 365], the IC50 turned out to be 208 nM.

Regarding `O=C(NCc1ccc(C(=O)N[C@@H](CNC(=O)c2ccccc2)C(=O)O)c(Cl)c1)c1cc(O)cc(O)c1` [Example 366], the IC50 came to 61 nM.

As for `O=C(NCc1ccc(C(=O)N[C@@H](CNC(=O)c2ccccc2)C(=O)O)c(Cl)c1)c1ccc2[nH]ccc2c1` [Example 368], the IC50 is 765 nM.

With `O=C(NCc1ccc(C(=O)N[C@@H](CNC(=O)c2ccccc2)C(=O)O)c(Cl)c1)c1ccc2cc[nH]c2c1` [Example 369], the IC50 came to 403 nM.
